# Measured values from patent US8586617B2, “Aminomethyl-4-imidazoles” (Hoffmann-La Roche Inc., priority 2006, dated 2013).
# Biological target: TAAR1 (Mus musculus (Mouse), UniProt Q923Y8)
# Assay: TAAR1 radioligand binding assay ([3H]-rac-2-(1,2,3,4-tetrahydro-1-naphthyl)-2-imidazoline, membranes of stably transfected HEK293 cells)
# Details: not given
# Sequence of TAAR1 (Q923Y8 whole entry): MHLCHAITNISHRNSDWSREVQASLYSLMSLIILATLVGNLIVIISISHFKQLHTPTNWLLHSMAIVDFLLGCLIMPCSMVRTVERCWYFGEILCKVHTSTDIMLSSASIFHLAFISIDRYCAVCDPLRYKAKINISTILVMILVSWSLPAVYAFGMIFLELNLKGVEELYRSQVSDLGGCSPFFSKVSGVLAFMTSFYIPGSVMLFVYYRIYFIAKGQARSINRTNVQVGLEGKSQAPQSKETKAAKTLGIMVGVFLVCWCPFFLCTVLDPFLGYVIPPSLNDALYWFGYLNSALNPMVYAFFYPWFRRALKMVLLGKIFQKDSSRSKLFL
row,Ki [µM],SMILES
1,0.009,"CCN(Cc1cnc[nH]1)c1cccc(C(F)(F)F)n1 [Example 251, Ethyl-(1H-imidazol-4-ylmethyl)-(6-trifluoromethyl-pyridin-2-yl)-amine]"

# Same assay, conditions: read-out: Ki (μM) mouse; mouse TAAR1; radioligand [3H]-rac-2-(1,2,3,4-tetrahydro-1-naphthyl)-2-imidazoline at 60 nM; 4° C., 30 minutes
row,SMILES,Ki [µM]
1,"CCN(Cc1cnc[nH]1)c1nc(Cl)cc(Cl)n1 [Example 237, (4,6-Dichloro-pyrimidin-2-yl)-ethyl-(1H-imidazol-4-ylmethyl)-amine]",0.004
2,"Fc1ccc(NCc2cnc[nH]2)cc1Cl [Example 281, (3-Chloro-4-fluoro-phenyl)-(1H-imidazol-4-ylmethyl)-amine]",0.004
3,"CC(C)N(Cc1cnc[nH]1)c1cc(Cl)cc(Cl)c1 [Example 24, (3,5-Dichloro-phenyl)-(3H-imidazol-4-ylmethyl)-isopropyl-amine]",0.001
4,"CC(C)N(Cc1cnc[nH]1)c1ccc(OC(F)(F)F)c(Cl)c1 [Example 33, (3-Chloro-4-trifluoromethoxy-phenyl)-(3H-imidazol-4-ylmethyl)-isopropyl-amine]",0.0028
5,"Fc1ccc(NCc2cnc[nH]2)cc1Oc1ccccc1 [Example 202, (4-Fluoro-3-phenoxy-phenyl)-(3H-imidazol-4-ylmethyl)-amine]",0.0084
6,"CC(C)N(Cc1cnc[nH]1)c1ccc(Cl)c(C(F)(F)F)c1 [Example 31, (4-Chloro-3-trifluoromethyl-phenyl)-(3H-imidazol-4-ylmethyl)-isopropyl-amine]",0.0045
7,"Fc1cc(Cl)cc(NCc2cnc[nH]2)c1 [Example 179, (3-Chloro-5-fluoro-phenyl)-(1H-imidazol-4-ylmethyl)-amine]",0.0026
8,"CCN(Cc1cnc[nH]1)c1cccc(OC(F)F)c1 [Example 195, (3-Difluoromethoxy-phenyl)-ethyl-(3H-imidazol-4-ylmethyl)-amine]",0.0042
9,"CC(C)N(Cc1cnc[nH]1)c1ccc2c(c1)CCC2 [Example 73, (3H-Imidazol-4-ylmethyl)-indan-5-yl-isopropyl-amine]",0.0055
10,"CCN(Cc1cnc[nH]1)c1ccc(Cl)c(Cl)c1 [Example 247, (3,4-Dichloro-phenyl)-ethyl-(1H-imidazol-4-ylmethyl)-amine]",0.001
11,"CN(Cc1cnc[nH]1)c1cc(Cl)cc(Cl)c1 [Example 291, (3,5-Dichloro-phenyl)-(1H-imidazol-4-ylmethyl)-methyl-amine]",0.001
12,"Clc1cccc(CN(Cc2cnc[nH]2)c2cccc(Cl)c2)c1 [Example 19, (3-Chloro-benzyl)-(3-chloro-phenyl)-(1H-imidazol-4-ylmethyl)-amine]",0.0077
13,"FC(F)(F)Oc1ccc(NCc2cnc[nH]2)cc1Cl [Example 327, (3-Chloro-4-trifluoromethoxy-phenyl)-(1H-imidazol-4-ylmethyl)-amine]",0.002
14,"CN(Cc1cnc[nH]1)c1cccc(Oc2ccccc2)c1 [Example 175, (3H-Imidazol-4-ylmethyl)-methyl-(3-phenoxy-phenyl)-amine]",0.0036
15,"Clc1cccc(N(Cc2cnc[nH]2)Cc2ccccc2Cl)c1 [Example 18, (2-Chloro-benzyl)-(3-chloro-phenyl)-(1H-imidazol-4-ylmethyl)-amine]",0.0039
16,"COc1c(F)ccc(N(Cc2cnc[nH]2)C(C)C)c1F [Example 102, (2,4-Difluoro-3-methoxy-phenyl)-(3H-imidazol-4-ylmethyl)-isopropyl-amine]",0.006
17,"CN(Cc1cnc[nH]1)c1cc(F)cc(F)c1 [Example 292, (3,5-Difluoro-phenyl)-(1H-imidazol-4-ylmethyl)-methyl-amine]",0.007
18,"CCN(Cc1cnc[nH]1)c1ccc(Cl)c(F)c1 [Example 307, (4-Chloro-3-fluoro-phenyl)-ethyl-(1H-imidazol-4-ylmethyl)-amine]",0.002
19,"CCN(Cc1cnc[nH]1)c1ccc(Cl)c(OC)c1 [Example 324, (4-Chloro-3-methoxy-phenyl)-ethyl-(1H-imidazol-4-ylmethyl)-amine]",0.002
20,"CCN(Cc1cnc[nH]1)c1ccc(Br)c(F)c1 [Example 305, (4-Bromo-3-fluoro-phenyl)-ethyl-(1H-imidazol-4-ylmethyl)-amine]",0.002
